Assay [1] addresses IRK1 potassium inward rectifier channel (Rattus norvegicus, UniProt Q64273).
Another assay deals with HL5 cells. It counts as cell-based.
Assay [2] relates to voltage-activated chloride and potassium channels of wild-type HEK-293 cells.

IRK1 potassium inward rectifier channel, sequence (Q64273 whole entry): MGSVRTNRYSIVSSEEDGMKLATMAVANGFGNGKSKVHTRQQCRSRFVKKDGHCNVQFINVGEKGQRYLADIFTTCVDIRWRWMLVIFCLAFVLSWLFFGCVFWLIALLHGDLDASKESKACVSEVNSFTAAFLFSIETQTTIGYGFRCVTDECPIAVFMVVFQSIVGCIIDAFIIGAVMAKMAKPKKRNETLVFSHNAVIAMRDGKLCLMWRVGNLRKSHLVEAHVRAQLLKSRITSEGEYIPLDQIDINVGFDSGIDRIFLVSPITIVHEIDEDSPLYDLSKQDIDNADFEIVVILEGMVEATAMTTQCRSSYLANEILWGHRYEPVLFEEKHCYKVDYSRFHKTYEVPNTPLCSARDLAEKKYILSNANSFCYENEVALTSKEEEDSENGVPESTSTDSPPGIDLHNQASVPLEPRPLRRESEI

As to `[Ba+2].[Cl-].[Cl-]` [barium chloride], the “voltage change during stimulation with block” value in assay [1] is “no detectable voltage change during stimulation until the field reaches 80 V/cm”. For `NC1=N[C@H](O)[C@H]2[C@H]3O[C@]4(O)O[C@@H]([C@@H](O)[C@@]2(N1)[C@@H]4O)[C@]3(O)CO` [TTX, tetrodotoxin], the “effect on the sustained signal” value in the assay with HL5 cells was “unaffected”.

As for `CC[N+](CC)(CC)CC` [TEA, Tetraethylammonium], in assay [2], the “block of the negative voltage response” value was “partially blocks the response”.

The values are drawn from US8071318B2, “High throughput method and system for screening candidate compounds for activity against target ion channels” (Vertex Pharmaceuticals (San Diego) LLC, priority 2000, dated 2011).
